Test results taken from article PMC9502272, “A Metabolomics Approach for Predicting OATP1B-Type Transporter-Mediated Drug–Drug Interaction Liabilities” (Pharmaceutics, 2022).
Read-outs that look alike come from different tables or passages of the source.

Experiments:
Oatp1b2 [1] = target: T1, Oatp1b2 (Mus musculus, UniProt Q9JJL3); settings: in vivo
T1 sequence (Q9JJL3 1-689): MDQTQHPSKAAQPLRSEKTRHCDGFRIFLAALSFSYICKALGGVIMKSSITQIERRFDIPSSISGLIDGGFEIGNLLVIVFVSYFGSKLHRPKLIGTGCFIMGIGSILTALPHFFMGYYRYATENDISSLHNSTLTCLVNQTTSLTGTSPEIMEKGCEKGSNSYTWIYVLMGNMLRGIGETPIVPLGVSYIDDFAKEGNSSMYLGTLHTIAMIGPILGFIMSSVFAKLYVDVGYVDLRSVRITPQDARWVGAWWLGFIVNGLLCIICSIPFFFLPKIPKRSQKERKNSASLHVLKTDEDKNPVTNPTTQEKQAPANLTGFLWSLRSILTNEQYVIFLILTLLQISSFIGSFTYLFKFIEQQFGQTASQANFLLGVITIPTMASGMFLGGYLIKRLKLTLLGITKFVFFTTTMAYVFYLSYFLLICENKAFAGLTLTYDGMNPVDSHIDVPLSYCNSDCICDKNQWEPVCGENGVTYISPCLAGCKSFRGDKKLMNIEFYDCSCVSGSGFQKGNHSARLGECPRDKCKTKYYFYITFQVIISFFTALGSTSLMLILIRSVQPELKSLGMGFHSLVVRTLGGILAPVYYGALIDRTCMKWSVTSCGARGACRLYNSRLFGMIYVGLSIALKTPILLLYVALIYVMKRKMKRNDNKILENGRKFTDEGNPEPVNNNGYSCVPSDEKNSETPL
Procedure: (§1) For all experiments, age- and sex-matched mice (8–12 weeks old) were used. […] Mice with a deficiency of Oatp1b2 (Oatp1b2(−/−) mice), the single murine orthologue of OATP1B1 and OATP1B3 in humans, on a DBA/1LacJ background were kindly provided by Drs. Richard B. Kim (Western University, London, Ontario, Canada) and Jeffrey L. Stock (Pfizer, Groton, CT, USA).
(§2) Plasma samples from untreated wild-type mice and Oatp1b2(−/−) mice were analyzed for structurally named and unknown molecules using a non-targeted semi-quantitative liquid chromatography-tandem mass spectrometry (LC-MS/MS) and gas chromatography-mass spectrometry platforms (Metabolon, Durham, NC, USA). Compounds were identified by comparison with library entries of purified standards or recurrent unknown entities.

Oatp1b2 [2] = target: T1, Oatp1b2; assay: Untargeted metabolomics of plasma from untreated wild-type and Oatp1b2(−/−) mice; settings: for Fold of Change KO/WT: plasma of untreated Oatp1b2-deficient (KO) vs wild-type (WT) mice, semi-quantitative, positive = higher in KO, n = 6 per group; for Mean value KO: plasma of untreated Oatp1b2-deficient mice; for Mean value KO / Mean value WT: raw area counts rescaled to median = 1; for Mean value WT: plasma of untreated wild-type mice
Procedure: as §1, §2

Oatp1a/1b = assay: Baseline plasma biomarker levels in Oatp1a/1b(−/−) cluster-knockout vs wild-type mice; assay type: in vivo, mouse
Procedure: Plasma concentrations of levels of CDCA-24G and glycochenodeoxycholate-3-sulfate (GCDCA-S) were determined using LC-MS/MS using a Vanquish UHPLC coupled with a Quantiva triple quadrupole mass spectrometer (Thermo Fisher Scientific, Waltham, MA, USA). An Accucore aQ column (50 × 2.1 mm, dp = 2.6 μm; Thermo Fisher Scientific) was protected by a C18 AQUASIL guard cartridge (2.1 mm × 10 mm, dp = 3 μm; Thermo Fisher Scientific). The injection volume of sample was 5.0 μL. The temperature of the autosampler rack was 4 °C, and the temperature of the column was maintained at 20 °C. The mobile phase was composed of solvent A (2 mmol ammonium acetate in water) and solvent B (100% methanol), and the total run time was 4.6 min. The gradient conditions were as follows: 0–0.5 min, 45% B; 0.5–2.0 min, 45 to 90%, 2.0–4.0 min, 90% B; 4.0–4.6 min, 45% B, delivered at a flow rate of 0.4 mL/min. The MS assay setting with the positive voltage applied to the ESI capillary was set at 3791 V, and the capillary temperatures was 335 °C with a vaporizer temperature of 350 °C. Argon was used as the collision gas at a pressure of 1.5 mTorr. Precursor molecular ions, and product ions were recorded for the confirmation and detection of GCDCA-S (528.4 > 448.3) and CDCA-24G (567.4 > 391.1), using [^2H5]-GCDCA-S (535.5 > 453.3) and [^2H5]-CDCA-24G (572.5 > 396.1) as respective internal standards. The lower limit of quantitation (LLOQ) for both analytes was determined to be 0.5 ng/mL. […]
Plasma concentrations of coproporphyrin I (CP-I) and III (CP-III) were determined similarly by LC-MS/MS. […] Precursor molecular ions and product ions were recorded for confirmation and detection of CP-I (655.4 > 596.4) and CP-III (655.4 > 596.3), using [^2H4]-CP-III (659.4 > 600.3) as the internal standard for both analytes. The LLOQ for both analytes were determined to be 1 ng/mL, and the within-run and between-run precisions as well as the accuracy were always within acceptable limits.

| Compound | Fold of Change KO/WT (Oatp1b2 [1]) | Mean value KO (Oatp1b2 [1]) | Mean value WT (Oatp1b2 [1]) | Fold of Change KO/WT (Oatp1b2 [2]) | Mean value KO (Oatp1b2 [2]) | Mean value WT (Oatp1b2 [2]) | Observed changes in plasma levels in Oatp1a/1b(−/−), OATP1B1(tg) or OATP1B3(tg) mice vs wild type, compared with CDCA-24G (Oatp1a/1b) |
| --- | --- | --- | --- | --- | --- | --- | --- |
| C[N+](C)(C)[C@@H](Cc1cnc[nH]1)C(=O)[O-] [histidine betaine (hercynine)] | 1.31 | 1.09 | .830 |  |  |  |  |
| O=C(O)CCCCCCCCCC(=O)O [undecanedioate (C11-DC)] |  |  |  | 3.00 | 1.96 | .654 |  |
| C[C@H](CCC(=O)O)[C@H]1CC[C@H]2[C@@H]3[C@@H](O)C[C@@H]4C[C@H](O)CC[C@]4(C)[C@H]3C[C@H](O)[C@]12C [ursocholate] |  |  |  | 33.8 | 5.10 | .151 |  |
| C[C@H](CCC(=O)O)[C@H]1CC[C@H]2[C@@H]3[C@@H](O)C[C@@H]4C[C@H](O)CC[C@]4(C)[C@H]3CC[C@]12C [ursodeoxycholate] |  |  |  | 4.07 | 2.16 | .530 |  |
| CCCCC(=O)NCC(=O)O [valerylglycine] |  |  |  | 1.53 | 1.28 | .838 |  |
| Cc1c(C)c2c(c(C)c1O)CC[C@@](C)(CCC[C@H](C)CCC[C@H](C)CCCC(C)C)O2 [α-tocopherol] |  |  |  | 2.03 | 1.44 | .707 |  |
| (N(1) + N(8))-acetylspermidine |  |  |  |  |  | .931 |  |
| chenodeoxycholic acid sulfate (1) |  |  |  | 6.41 | 1.02 | .160 |  |
| coproporphyrin I [CP-I] |  |  |  |  |  |  | much more modest |
| coproporphyrin III [CP-III] |  |  |  |  |  |  | much more modest |
| dihomo-linolenoylcarnitine (C20:3n3 or 6) |  |  |  | 1.72 | 1.37 | .795 |  |
| dodecenedioate (C12:1-DC) |  |  |  | 3.94 | 2.14 | .543 |  |
| eicosadienamide (20:2) |  |  |  | 1.46 | 1.27 | .869 |  |
| eicosenamide (20:1) |  |  |  | 1.43 | 1.27 | .885 |  |
| eicosenedioate (C20:1-DC) |  |  |  | 5.36 | 1.80 | .335 |  |
| enterolactone sulfate |  |  |  | 3.42 | 1.63 | .478 |  |
| equol glucuronide |  |  |  | 1.90 | 1.35 | .709 |  |

| Compound | Fold of Change KO/WT (Oatp1b2 [1]) | Mean value KO (Oatp1b2 [1]) | Mean value WT (Oatp1b2 [1]) | Fold of Change KO/WT (Oatp1b2 [2]) | Mean value KO (Oatp1b2 [2]) | Mean value WT (Oatp1b2 [2]) | Observed changes in plasma levels in Oatp1a/1b(−/−), OATP1B1(tg) or OATP1B3(tg) mice vs wild type, compared with CDCA-24G (Oatp1a/1b) |
| --- | --- | --- | --- | --- | --- | --- | --- |
| equol sulfate |  |  |  | 2.58 | 1.62 | .626 |  |
| heptadecenamide (17:1) |  |  |  | 1.37 | 1.29 | .939 |  |
| hexadecenedioate (C16:1-DC) |  |  |  | 3.61 | 1.62 | .448 |  |
| linolenoylcarnitine (C18:3) |  |  |  | 1.91 | 1.51 | .794 |  |
| nonadecenamide (19:1) |  |  |  | 1.39 | 1.27 | .917 |  |
| octadecadienedioate (C18:2-DC) |  |  |  | 3.48 | 1.88 | .540 |  |
| octadecenedioate (C18:1-DC) |  |  |  | 2.66 | 1.45 | .544 |  |
| octadecenedioylcarnitine (C18:1-DC) |  |  |  | 12.7 | 2.35 | .185 |  |
| pregnenediol disulfate (C21H34O8S2) |  |  |  | 2.14 | 1.16 | .540 |  |
| sphingomyelin (d17:1/14:0, d16:1/15:0) |  |  |  | 1.32 | 1.02 | .769 |  |
| sphingomyelin (d18:1/14:0, d16:1/16:0) |  |  |  |  |  | .930 |  |
| sphingomyelin (d18:2/14:0, d18:1/14:1) |  |  |  | 1.36 | 1.14 | .839 |  |
| sphingomyelin (d18:2/16:0, d18:1/16:1) |  |  |  |  |  | .940 |  |
| taurocholenate sulfate |  |  |  |  | 1.08 | .838 |  |
| tauroursodeoxycholic acid sulfate (2) |  |  |  | 2.18 | 1.12 | .513 |  |
| tetradecadienedioate (C14:2-DC) |  |  |  | 2.09 | 1.58 | .756 |  |
